# Measured values published in US20140187594A1, “DIPHENYL ETHER COMPOUNDS FOR THE TREATMENT OF LIVER, LUNG DISORDERS, DIABETIC COMPLICATIONS AND CARDIOVASCULAR DISEASES” (ORCHID CHEMICALS AND PHARMACEUTICALS LTD, priority 2010, published 2014).
# Assays:
# [1] = target: T1, Rat lens Aldose reductase (Rattus norvegicus, UniProt P07943); test: Aldose reductase inhibitory activity; type: biochemical; conditions: rat lens enzyme, 0.2 mM NADPH, pH 6.2, 25° C.
# T1 construct: Rat lens Aldose reductase is used; from tissue; host or cells: rat lens
# Method: Rat lens Aldose reductase is used. Test compound and/or vehicle is preincubated with 3000 μg/ml enzyme (J. Enzyme Inhib. 1993, 7, 249-256; Biol. Pharm. Bull. 1994, 17, 458-459) and 0.2 mM NADPH in phosphate buffer pH 6.2 for 15 minutes at 25° C. The reaction is initiated by addition of 10 mM DL-glyceraldehyde and incubated for another 20 minutes. Determination of the amount of NADPH remained is read spectrophotometrically. Compounds are screened at 10 μM. Since enzyme activity may change from lot to lot, the concentration used will be adjusted if necessary.
# [2] = test system: iNOS; test: iNOS inhibition in LPS challenged cells (anti iNOS antibody); type: cell-based; conditions: 30 μM, one hour preincubation, LPS 1 μg/mL for 6 hours, FIG. 38
# From the text: (§1) Based on the results obtained in the in-vitro studies, it can be concluded that Compounds A, B and C are moderately potent inhibitors of Aldose Reductase. […] At the end of the assay, cell lysates were probed with anti iNOS antibody. Compound of formula (A) inhibits the iNOS production in these cells (FIG. 38). […] Since iNOS is implicated in the pathology of diabetic complications, it is anticipated that Compound of formula (A) will have a protective effect in the development of neovascularization contributed by elevated iNOS. Inhibits LPS induced TNF-α and IL-6 Inhibition In Vivo: This study was undertaken when the mice are at 10-11 weeks in age. On Day 0 their body weights were measured and they were assigned to two groups of 6 mice each to get similar average group body weights. They were orally administered with either vehicle (deionized water, Group 1) or Compound of formula (A) (50 mg/kg; Group 2) daily between 9:30 and 10:30 AM for 10 days. The body weights were measured on day 3, 7 and 10 of the study before administration of vehicle or drug. On Day 10, the mice were administered LPS at 400 μg/kg, IP. After 1 hour they were orally administered with either vehicle or Compound of formula (A). After another 90 minutes, the mice were euthanized by carbon dioxide asphyxiation. Blood was collected by cardiac puncture and was processed to obtain serum. […]
# [3] = test system: IL-6; test: LPS induced serum IL-6 in vivo; parameters: species or system mice; conditions: 50 mg/kg/day oral, 10 days, LPS 400 μg/kg IP, FIG. 40
# From the text: as §1, with “(A).” for “(A). After another 90 minutes, the mice were euthanized by carbon dioxide asphyxiation. Blood was collected by cardiac puncture and was processed to obtain serum.”
# Serum IL-6 concentration for each group of mice is determined using the Quantikine Mouse IL-6 Immunoassay kit. […] The optical density of each well was read at 450 nm Microplate Reader (FIG. 40).
# [4] = test system: 3T3-L1 fibroblasts; test: Adipogenesis in 3T3-L1 mouse fibroblast (oil red O staining); type: cell-based; conditions: 1 μM or 10 μM, 7 days
# Method: 3T3-L1 fibroblasts were seeded at a concentration of 10,000 cells/well in 24 well tissue culture plates in a total volume of 1 mL Dulbecco's Modified Eagle Medium (DMEM media) containing 10% fetal bovine serum, penicillin and streptomycin. […] After every two days, the media contents were replaced with fresh media and the drug. This process was carried out for 7 days. After 7 days of treatment, the cells were fixed in 10% formalin for 1 hour at […], stained with oil red 0 solution for 10 minutes and washed 6 times with 1×PBS to remove the excess stain. The plates were dried and visualized under 40× objective using Nikon E200 microscope and the pictures were taken by Nikon DXM 1200C digital camera.
# [5] = test system: bleomycin induced lung fibrosis; test: Bleomycin induced lung fibrosis (prophylactic); type: in vivo, C57BL/6 mice; conditions: 100 mg/kg p.o., 7 days before and 14 days after bleomycin; FIGS. 26 & 27
# Method: Female C57BL/6 mice were used in this study. Animals were divided into four groups based on their body weight. To induce fibrosis bleomycin was administered at 0.1 U/animal (volume 50 μL) intratracheally to Group II (Disease control), Group III and Group IV, whereas Group I (Normal control) received only saline. The bleomycin challenged Group III and Group IV animals were treated with pentoxifylline (20 mg/kg p.o.) and compound of formula (A) (100 mg/kg p.o.) respectively, whereas Group I and the bleomycin challenged Group II animals received vehicle for 7 days before and 14 days after bleomycin administration. Body weight, feed and liquid intake and mortality rate were recorded. At the end of the study, animals were bled and plasma was stored in deep freezer (−80° C.) for biochemical parameters estimation. Then, the animals were sacrificed and lung tissue harvested and weighed. Right lung tissue was stored in deep freezer (−80° C.) for expression study and drug concentration analysis. The left lung tissues was fixed in formalin (10%) by slow infusion, then immersed and preserved in formalin (10%) for histopathology examination.
# [6] = test system: acute alcohol induced hypertriglyceridemic mice; test: Acute alcohol induced hypertriglyceridemia; type: in vivo, C57BL/6 mice; conditions: (A) 100 mg/kg, disodium salt of (C) 30 mg/kg p.o., seven days, 40% alcohol challenge; FIG. 33
# Method: Male C57BL/6 mice aged 6-8 weeks, and body weight ranges between 22-28 g were used for this study. Animals were divided into four groups (n=8) and fed normal chow feed (Nutri Lab® Rodent, Tetragon Chemie Pvt. Ltd., Bangalore) and drinking water. The Group I and Group II animals were served as a normal and disease control treated with vehicle. Group III (n=8) and Group IV (n=8) animals were treated with compound of formula (A) and disodium salts of compound of formula (C) at 100 and 30 mg/kg p.o respectively for seven days. On 7th day one hour post administration of compounds Group II, Group III and Group IV animals were challenged with 40% alcohol (10 ml/kg b.w) p.o. Eighteen hours post challenge animals were bled, plasma separated and used for biochemical parameter analysis.
# The parameters like Glucose, ALT, AST, TC, TG (Clinical chemistry analyzer Erba XL 300), insulin (Linco®-CA, Product code: EZRMI-13K) and TNFα (GE Healthcare, Amersham, UK. Product code: RPN2718) were measured using commercially available kits. NEFA was measured in serum using commercially available NEFA C kit (Product code No: 279-75401, Wako pure chemical industries ltd., Japan).
structure (smiles),measurement,setting,value
"COC(=O)[C@@H](N)Cc1ccc(Oc2ccc(CC3SC(=O)NC3=O)cc2)cc1 (stereo partly drawn) [Compound of formula (A), Methyl(2S)-2-amino-3-(4-{4-[(2,4-dioxo-1,3-thiazolidin-5-yl)methyl]phenoxy}phenyl)propanoate]",IC50,[1],4.07 µM
same,iNOS production,[2],potent inhibitor of iNOS with activity superior to Rosiglitazone at equal concentrations
same,Serum IL-6 level,[3],reduction
same,adipogenesis (intracellular lipids stained with oil red O),[4],did not induce adipogenesis
same,lung fibrosis formation (histopathology),[5],significantly prevents fibrosis formation
same,plasma TG,[6],significant reduction in TG
